# According to patent US20120309934A1, “INTRACELLUAR TARGETING BIPODAL PEPTIDE BINDER” (priority 2009, published 2012):
# Residues, ends and D or L forms follow the SMILES beside them. No end group written: not given here.
# Key:
# Assay type in all cases: binding
# VCAM1 = biological target: T1, VCAM1 (Homo sapiens, UniProt P19320); test: Recombinant phage ELISA specificity to VCAM1; conditions: recombinant phage ELISA against several proteins
# T1 construct: made in house; host or cells: E. coli AD494 (pET32a)
# T1 sequence (P19320 25-739): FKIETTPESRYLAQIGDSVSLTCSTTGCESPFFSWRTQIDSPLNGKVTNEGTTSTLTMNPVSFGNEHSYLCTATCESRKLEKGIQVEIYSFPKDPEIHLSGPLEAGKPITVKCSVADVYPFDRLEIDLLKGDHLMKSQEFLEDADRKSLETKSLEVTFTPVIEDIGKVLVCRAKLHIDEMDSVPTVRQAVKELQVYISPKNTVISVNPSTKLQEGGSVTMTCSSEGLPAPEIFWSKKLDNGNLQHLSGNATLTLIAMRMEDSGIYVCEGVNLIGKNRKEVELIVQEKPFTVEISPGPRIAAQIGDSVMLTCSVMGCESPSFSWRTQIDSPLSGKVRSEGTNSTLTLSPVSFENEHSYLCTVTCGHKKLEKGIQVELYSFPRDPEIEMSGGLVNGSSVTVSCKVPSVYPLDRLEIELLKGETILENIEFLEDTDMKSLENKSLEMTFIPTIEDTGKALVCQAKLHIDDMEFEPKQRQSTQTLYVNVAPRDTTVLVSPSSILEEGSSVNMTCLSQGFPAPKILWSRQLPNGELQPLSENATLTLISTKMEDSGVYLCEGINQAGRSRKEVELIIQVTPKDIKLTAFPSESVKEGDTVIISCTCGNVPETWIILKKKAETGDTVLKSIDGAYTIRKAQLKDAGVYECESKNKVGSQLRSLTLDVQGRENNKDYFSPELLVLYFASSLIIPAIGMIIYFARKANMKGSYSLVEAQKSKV
# Description: (§1) Specificity of recombinant phages to each protein was carried out using ELISA. Each protein (5 μg/ml) was seeded into wells (50 μl per well) in a 96-well ELISA plate and next day, all wells were washed with 0.1% PBST (Tween-20) three times, and blocked at room temperature for 2 hrs using 2% skim milk. Then, the solution was completely removed and the plate was washed with 0.1% PBST three times. Recombinant phages containing the peptide of the present invention were thoroughly mixed with 2% BSA. Each mixture (100 μl) was divided into wells coated with 10 proteins and kept to stand at 27° C. for 2 hrs. After washing with 0.1% PBST 5 times, HRP-conjugated anti-M13 antibodies (1:1,000 dilution; GE Healthcare) were added to each well and incubated at 27° C. for 1 hr. After washing with 0.1% PBST 5 times, 100 μl TMB was divided into each well to induce colorimetric reaction, followed by stopping the reaction adding 100 μl of 1 M HCl. The absorbance was measured at 450 nm.
# HSA = biological target: T2, HSA (Homo sapiens, UniProt P02768); test: Recombinant phage ELISA specificity to HSA; conditions: recombinant phage ELISA against several proteins
# T2 construct: purchased Genetex Inc. (Irvine)
# Description: as §1
# MyD88 = biological target: T3, MyD88 (Homo sapiens, UniProt Q99836); test: Recombinant phage ELISA specificity to MyD88; conditions: recombinant phage ELISA against several proteins
# T3 construct: purchased Santa Cruz Biotechnology sc-4540 WB
# Description: as §1
# The MyD88-specific bipodal-peptide binders were analyzed to have target specificity to MyD88 by the ELISA (FIG. 6f).
# STAT3 = biological target: T4, STAT3 (Homo sapiens, UniProt P40763); test: Phage ELISA to STAT3 (clone screening and specificity); conditions: recombinant phage ELISA
# T4 construct: endogenous in cells; host or cells: DU145
# Description: XL1-BLUE cells were transformed with phages recovered from the 4th biopanning step having the highest ratio of output phage to input phage, and spread in plate to produce 100-200 of plaques. Using a sterile tip, 60 plaques were inoculated in 2 ml LB-ampicillin (50 μg/ml) media and cultured at 37° C. for 5 hr with vigorous shaking. The transformed cells were infected with Ex helper phages (5×10^9 pfu/ml; OD=0.8-1.0) and cultured at 37° C. for 1 hr with shaking at 200 rpm. After removing the supernatant by centrifuging at 1,000×g for 10 min, the precipitated cells were resuspended in 1 ml LB liquid media supplemented with 50 μg/ml ampicillin and 25 μg/ml kanamycin, and cultured at 30° C. overnight with shaking at 200 rpm. The supernatant was collected by centrifuging at 10,000×g for 20 min at 4° C. and mixed with 2% skim milk, which is used in detection of phage peptides.
# STAT3 (10 μg/ml), BSA (10 μg/ml) and streptavidin (10 μg/ml) each was added to 30 wells (50 μl per well) in a 96-well ELISA plate and then kept to stand at 4° C. overnight. Next day, all wells were washed with 0.1% PBST three times, and blocked at room temperature for 2 hrs using 2% skim milk diluted with PBS. Then, the solution was removed and the plate was washed with 0.1% PBST three times. […] The absorbance was measured at 450 nm to select phages which had the absorbance above 20-fold higher than BSA. […]
# [1] = biological target: T5, nAchR (Nicotinic acetylcholine receptor) (Mus musculus, UniProt P04756); test: SPR (Biacore) affinity to nAchR peptide fragment
# T5 construct: Biotin-[…]; (32 mer), a peptide fragment of nAchR; purchased Anigen Inc. (Korea, Kwangju), custom synthesis
# Description: Affinity was measured using BIAcore X instrument (Biacore AB, Uppsala, Sweden). ED-B and nAchR were immobilized on streptavidin (SA) chip (Biacore) by injecting 2,000 RU biotinylated-EDB. VEGF was immobilized on CM5 chip (Biacore) using EDC/NHS. PBS (pH 7.4) was used as a running buffer.
# nAchR = biological target: T6, nAchR (Mus musculus, UniProt P04756); test: Recombinant phage ELISA specificity to nAchR; conditions: recombinant phage ELISA against several proteins
# T6 construct: Biotin-[…]; (32 mer), a peptide fragment of nAchR; purchased Anigen Inc. (Korea, Kwangju), custom synthesis
# Description: as §1
# VEGF = biological target: T7, VEGF (Homo sapiens, UniProt P15692); test: Recombinant phage ELISA specificity to VEGF; conditions: recombinant phage ELISA against several proteins
# T7 construct: Trx (thioredoxin, pET32a) (N, cleaved yes); made in house; host or cells: E. coli AD494 (pET32a)
# T7 sequence (P15692 27-147 isoform P15692-9 limits assumed): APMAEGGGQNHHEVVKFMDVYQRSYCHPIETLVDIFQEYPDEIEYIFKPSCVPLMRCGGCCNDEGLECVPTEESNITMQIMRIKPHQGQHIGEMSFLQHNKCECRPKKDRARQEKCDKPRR
# Description: as §1
# fibronectin ED-B = biological target: T8, fibronectin ED-B (Homo sapiens, UniProt P02751); test: Recombinant phage ELISA specificity to fibronectin ED-B; conditions: 450 nm, 10 proteins
# T8 construct: After transformation of pET28b vector carrying fibronectin ED-B into BL21 cells; made in house; host or cells: E. coli BL21 (pET28b)
# Description: as §1
# T4 sequence (P40763 whole entry, species assumed): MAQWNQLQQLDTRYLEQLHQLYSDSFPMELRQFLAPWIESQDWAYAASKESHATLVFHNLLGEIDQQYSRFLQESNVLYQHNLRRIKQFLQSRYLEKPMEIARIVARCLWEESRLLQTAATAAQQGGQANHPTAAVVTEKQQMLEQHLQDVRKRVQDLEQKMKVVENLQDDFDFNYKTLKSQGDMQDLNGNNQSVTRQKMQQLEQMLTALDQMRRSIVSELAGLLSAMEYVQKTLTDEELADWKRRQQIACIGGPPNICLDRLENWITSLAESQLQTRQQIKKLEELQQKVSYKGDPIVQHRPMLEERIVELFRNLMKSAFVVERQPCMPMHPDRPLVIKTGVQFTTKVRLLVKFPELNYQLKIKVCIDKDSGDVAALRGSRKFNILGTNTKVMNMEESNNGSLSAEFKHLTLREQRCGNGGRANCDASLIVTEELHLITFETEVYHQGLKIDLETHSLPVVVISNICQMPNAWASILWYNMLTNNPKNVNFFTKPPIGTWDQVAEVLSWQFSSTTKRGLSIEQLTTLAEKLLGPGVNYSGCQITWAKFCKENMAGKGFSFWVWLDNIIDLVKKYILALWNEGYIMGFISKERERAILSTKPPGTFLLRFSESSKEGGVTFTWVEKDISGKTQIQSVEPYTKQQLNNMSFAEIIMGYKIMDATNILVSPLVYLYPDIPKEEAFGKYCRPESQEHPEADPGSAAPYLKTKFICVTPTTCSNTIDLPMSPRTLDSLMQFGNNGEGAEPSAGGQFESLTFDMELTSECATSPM
# T2 sequence (P02768 25-609): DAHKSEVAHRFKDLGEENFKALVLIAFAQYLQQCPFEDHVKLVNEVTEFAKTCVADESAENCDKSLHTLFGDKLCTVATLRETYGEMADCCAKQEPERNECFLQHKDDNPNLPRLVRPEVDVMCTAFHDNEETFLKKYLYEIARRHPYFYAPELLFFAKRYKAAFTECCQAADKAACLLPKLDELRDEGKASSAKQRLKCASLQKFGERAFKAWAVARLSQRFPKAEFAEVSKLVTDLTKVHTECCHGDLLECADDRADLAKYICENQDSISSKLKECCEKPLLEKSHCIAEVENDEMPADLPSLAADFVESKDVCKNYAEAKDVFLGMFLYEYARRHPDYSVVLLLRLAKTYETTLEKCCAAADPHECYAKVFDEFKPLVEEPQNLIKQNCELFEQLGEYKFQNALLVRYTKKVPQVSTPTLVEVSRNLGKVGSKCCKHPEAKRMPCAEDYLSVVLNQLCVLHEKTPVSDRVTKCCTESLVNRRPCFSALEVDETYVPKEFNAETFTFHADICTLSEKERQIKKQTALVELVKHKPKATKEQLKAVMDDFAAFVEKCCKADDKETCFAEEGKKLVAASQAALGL
# T3 sequence (Q99836 whole entry): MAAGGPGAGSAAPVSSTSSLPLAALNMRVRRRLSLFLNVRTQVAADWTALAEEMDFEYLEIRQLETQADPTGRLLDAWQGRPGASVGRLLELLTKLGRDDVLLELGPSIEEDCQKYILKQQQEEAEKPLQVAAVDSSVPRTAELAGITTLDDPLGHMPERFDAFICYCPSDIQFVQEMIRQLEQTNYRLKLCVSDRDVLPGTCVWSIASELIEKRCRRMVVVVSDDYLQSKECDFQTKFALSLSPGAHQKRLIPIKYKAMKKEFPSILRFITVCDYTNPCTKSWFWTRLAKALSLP
# T8 sequence (P02751 1271-1359 limits assumed): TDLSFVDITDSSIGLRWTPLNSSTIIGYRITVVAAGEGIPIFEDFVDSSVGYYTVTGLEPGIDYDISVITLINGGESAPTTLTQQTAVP
# T6 sequence (P04756 193-224 limits assumed): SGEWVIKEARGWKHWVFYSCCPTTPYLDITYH
# T5 sequence (P04756 193-224 limits assumed): as above
compound,measurement,setting,value
CC[C@H](C)[C@H](NC(=O)[C@@H]1CCCN1C(=O)[C@H](CS)NC(=O)[C@@H](NC(=O)[C@H](CO)NC(=O)[C@@H]1CCCN1C(=O)CNC(=O)[C@H](CCCCN)NC(=O)[C@H](Cc1c[nH]c2ccccc12)NC(=O)[C@@H](NC(=O)[C@H](Cc1c[nH]c2ccccc12)NC(=O)[C@H](CCCCN)NC(=O)CNC(=O)[C@H](CC(N)=O)NC(=O)[C@H](CCC(=O)O)NC(=O)[C@H](Cc1c[nH]c2ccccc12)NC(=O)[C@@H](NC(=O)[C@H](Cc1c[nH]c2ccccc12)NC(=O)[C@H](CO)NC(=O)CNC(=O)[C@@H](NC(=O)[C@H](CS)NC(=O)[C@H](CC(=O)O)NC(=O)[C@H](CCCNC(=N)N)NC(=O)[C@H](C)NC(=O)[C@@H](N)CCC(N)=O)[C@@H](C)O)[C@@H](C)O)[C@@H](C)O)[C@@H](C)CC)C(=O)O [Peptide 1 (Table 3c)] (H-QARDCTGSWTWENGKWTWKGPSICPI-OH; N-terminus and C-terminus assumed),specificity for VCAM1,VCAM1,has specificity
AASPYKGSWTWENGKWTWKGGWRMKM [Peptide 1 (Table 3e)],specificity for HSA,HSA,has specificity
HSHAFYGSWTWENGKWTWKGNPGWWT [Peptide 1 (Table 3f)],specificity for MyD88,MyD88,has specificity
HGFQWP GSWTWENGKWTWKG AYQFLK (GSWTWENGKWTWKGAYQFLK) [Peptide 2 (STAT3)],specificity to STAT3 compared to other proteins,STAT3,specificity to STAT3
"QAYYIPGSWTWENGKWTWKGLWGPEF [Peptide 1 (STAT3), QAYYIP GSWTWENGKWTWKG LWGPEF]",specificity to STAT3 compared to other proteins,STAT3,specificity to STAT3
EASFWLGSWTWENGKWTWKGKGTLNR [Peptide 1 (Table 3d)],Kd,[1],73 nM
same,specificity for nAchR,nAchR,has specificity
HANFFQGSWTWENGKWTWKGWKYNQS [Peptide 1 (Table 3b)],specificity for VEGF,VEGF,has specificity
HCSSAVGSWTWENGKWTWKGIIRLEQ [2 (Table 3a)],absorbance for ED-B higher than that of other proteins,fibronectin ED-B,above 30 fold
